Data as given in publication PMC10247784, “Physiological activation of human and mouse bitter taste receptors by bile acids” (Communications Biology, 2023).
“And” between values parts separate entries of the source, which are not always exact repeats. Equal entries are not always repeated.

Target: T1, human TAS2R1 (Homo sapiens, UniProt Q9NYW7)
T1 construct: expressed in transfected cells; host or cells: HEK293T-Gα16gust44
T1 sequence (Q9NYW7 1-299): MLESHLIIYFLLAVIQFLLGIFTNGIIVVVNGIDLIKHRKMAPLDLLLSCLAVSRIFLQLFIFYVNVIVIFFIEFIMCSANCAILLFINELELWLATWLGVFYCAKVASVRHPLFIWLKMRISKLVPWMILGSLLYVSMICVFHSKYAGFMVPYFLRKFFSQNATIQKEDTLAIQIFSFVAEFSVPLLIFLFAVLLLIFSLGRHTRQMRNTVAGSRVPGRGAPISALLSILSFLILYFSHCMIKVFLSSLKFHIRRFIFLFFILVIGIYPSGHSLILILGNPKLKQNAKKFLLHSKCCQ
Assay: Calcium imaging assay (FLIPR), HEK293T-Gα16gust44 cells transfected with human TAS2R1
Assay type: cell-based
How it was run: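 Bile acids from DMSO stocks are applied to dye-loaded cells one day after transient receptor transfection, and calcium-dependent fluorescence is recorded. Maximum signal is standardized to basal and normalized to buffer-only wells, with empty-vector signal subtracted.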

With `C[C@H](CCC(=O)O)[C@H]1CC[C@H]2[C@@H]3[C@@H](O)C[C@@H]4C[C@H](O)CC[C@]4(C)[C@H]3CC[C@]12C` [Ursodeoxycholic Acid, ursodeoxycholic acid] the “Efficacy = maximal amplitude (ΔF/F)” value (TAS2R1, bile acids, mean) was 0.1201, the “Efficacy (maximal amplitude ΔF/F), individual data points” value (TAS2R1, bile acids, single replicates, listed as UDCA) was 0.1146 and 0.1323 and 0.1134 and the RLU (Time 0 s) was 0 RLU. For the same compound, the RLU (Time 2.015 s) was -1.909 RLU, the RLU (Time 4.015 s) was -10.1979 RLU and the RLU (Time 6.015 s) was -25.0303 RLU. The RLU (Time 8.015 s) was -6.66 RLU, the RLU (Time 12.015 s) was -0.9118 RLU and the RLU (Time 14.015 s) was -27.1256 RLU. It also gave an RLU (Time 16.015 s) of -36.3442 RLU, an RLU (Time 18.015 s) of -16.5405 RLU and an RLU (Time 18.796 s) of -5.241 RLU. It also gave an RLU (Time 20.796 s) of -5.4345 RLU, an RLU (Time 22.796 s) of -14.9172 RLU and an RLU (Time 24.796 s) of 111.581 RLU. The RLU (Time 26.796 s) was 220.014 RLU, the RLU (Time 28.796 s) was 332.008 RLU and the RLU (Time 30.796 s) was 471.987 RLU. For the same compound, the RLU (Time 32.796 s) was 554.696 RLU, the RLU (Time 34.796 s) was 591.628 RLU and the RLU (Time 36.796 s) was 614.691 RLU. For the same compound, the RLU (Time 38.796 s) was 661.973 RLU, the RLU (Time 40.796 s) was 688.451 RLU and the RLU (Time 42.796 s) was 682.803 RLU. The RLU (Time 44.796 s) was 694.821 RLU, the RLU (Time 46.796 s) was 713.853 RLU and the RLU (Time 48.796 s) was 712.245 RLU. It also gave an RLU (Time 50.796 s) of 701.71 RLU, an RLU (Time 52.796 s) of 706.484 RLU and an RLU (Time 54.796 s) of 693.141 RLU. It also gave an RLU (Time 56.796 s) of 703.514 RLU, an RLU (Time 58.796 s) of 690.888 RLU and an RLU (Time 60.796 s) of 687.968 RLU. It also gave an RLU (Time 62.796 s) of 660.683 RLU, an RLU (Time 64.796 s) of 647.003 RLU and an RLU (Time 66.796 s) of 672.518 RLU. It also gave an RLU (Time 68.796 s) of 641.326 RLU, an RLU (Time 70.796 s) of 644.562 RLU and an RLU (Time 72.796 s) of 618.535 RLU. It also gave an RLU (Time 74.796 s) of 611.038 RLU, an RLU (Time 76.796 s) of 596.187 RLU and an RLU (Time 78.796 s) of 593.169 RLU. It also gave an RLU (Time 80.796 s) of 594.173 RLU, an RLU (Time 82.796 s) of 573.074 RLU and an RLU (Time 84.796 s) of 565.693 RLU. The RLU (Time 86.796 s) was 545.003 RLU, the RLU (Time 88.796 s) was 536.557 RLU and the RLU (Time 90.796 s) was 528.103 RLU. The RLU (Time 92.796 s) was 490.474 RLU, the RLU (Time 94.796 s) was 507.179 RLU and the RLU (Time 96.796 s) was 484.826 RLU. For the same compound, the RLU (Time 98.796 s) was 487.253 RLU, the RLU (Time 100.796 s) was 484.348 RLU and the RLU (Time 102.796 s) was 464.491 RLU. The RLU (Time 104.796 s) was 467.659 RLU, the RLU (Time 106.796 s) was 432.725 RLU and the RLU (Time 108.796 s) was 406.747 RLU. The RLU (Time 110.796 s) was 379.699 RLU, the RLU (Time 112.796 s) was 357.544 RLU and the RLU (Time 114.796 s) was 362.533 RLU. The RLU (Time 116.796 s) was 332.202 RLU, the RLU (Time 118.796 s) was 323.517 RLU and the RLU (Time 120.796 s) was 321.799 RLU. It also gave an RLU (Time 122.796 s) of 311.834 RLU, an RLU (Time 124.796 s) of 301.938 RLU and an RLU (Time 126.796 s) of 306.062 RLU. For the same compound, the RLU (Time 128.796 s) was 271.359 RLU, the RLU (Time 130.796 s) was 275.474 RLU and the RLU (Time 132.796 s) was 247.428 RLU. The RLU (Time 134.796 s) was 253.899 RLU, the RLU (Time 136.796 s) was 243.041 RLU and the RLU (Time 137.562 s) was 220.326 RLU. It also gave an RLU (Time 143.562 s) of 203.668 RLU, an RLU (Time 149.562 s) of 176.37 RLU and an RLU (Time 155.562 s) of 166.486 RLU. The RLU (Time 161.562 s) was 168.826 RLU, the RLU (Time 167.562 s) was 116.188 RLU and the RLU (Time 173.562 s) was 124.68 RLU. The RLU (Time 179.562 s) was 97.5703 RLU, the RLU (Time 185.562 s) was 83.8515 RLU and the RLU (Time 191.562 s) was 81.5894 RLU. It also gave an RLU (Time 197.562 s) of 63.0668 RLU, an RLU (Time 203.562 s) of 46.8203 RLU and an RLU (Time 209.562 s) of 23.6957 RLU. For the same compound, the RLU (Time 215.562 s) was 20.9611 RLU, the RLU (Time 221.562 s) was 21.314 RLU and the RLU (Time 227.562 s) was 32.3726 RLU. For the same compound, the RLU (Time 233.562 s) was 4.71 RLU, the RLU (Time 239.562 s) was 3.353 RLU and the RLU (Time 245.562 s) was -15.0975 RLU. The RLU (Time 293.562 s) was -21.0295 RLU, the RLU (Time 299.562 s) was -10.1171 RLU and the RLU (calcium trace, sheet TAS2R1, Time 305.562 s) was -21.932 RLU. For the same compound, the RLU (calcium trace, sheet TAS2R1, Time 311.562 s) was -35.6948 RLU, the RLU (calcium trace, sheet TAS2R1, Time 317.562 s) was -15.7818 RLU and the RLU (calcium trace, sheet TAS2R1, Time 323.562 s) was -21.7457 RLU. For the same compound, the RLU (calcium trace, sheet TAS2R1, Time 329.562 s) was -25.1818 RLU, the RLU (calcium trace, sheet TAS2R1, Time 335.562 s) was -20.2182 RLU and the RLU (calcium trace, sheet TAS2R1, Time 341.562 s) was 10.616 RLU. It also gave an RLU (calcium trace, sheet TAS2R1, Time 347.562 s) of -20.1556 RLU, an RLU (calcium trace, sheet TAS2R1, Time 353.562 s) of -12.0438 RLU and an RLU (calcium trace, sheet TAS2R1, Time 359.562 s) of -31.063 RLU. The “Δ F/F” value (conc. 0,01 mM, TAS2R1) was 0.05863, the “Δ F/F” value (conc. 0,03 mM, TAS2R1) was 0.1201 and the “Δ F/F” value (conc. 0,0001 mM, TAS2R1) was -0.003399. For the same compound, the “Δ F/F” value (conc. 0,0003 mM, TAS2R1) was 0.009061, the “Δ F/F” value (conc. 0,001 mM, TAS2R1) was 0.007937 and the “Δ F/F” value (conc. 0,003 mM, TAS2R1) was 0.01609. For the same compound, the “Activation threshold concentration TAS2R1” value (lowest concentration with significantly increased fluorescence vs empty vector (p < 0.01)) was 3 µM and 3.00 µM.
